Patent US12459951B2, “Compounds that interact with RAS superfamily proteins for treatment of cancers, inflammatory diseases, rasopathies, and fibrotic disease” (SHY Therapeutics, LLC, priority 2022, dated 2025)

Tests used:
Akt phosphorylation = assay: Akt Phosphorylation Assay (western blot), Panc-1; assay type: cell-based, human; conditions: at 10 μM, * = activation
Outline: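 Phospho-Akt (Ser473) was measured by western blot in lysates of KRas G12D Panc-1 cells exposed to test compound for 6 h at 37 °C, either at 10 μM final with 0.3% DMSO or as serial dilutions for IC50. One format used overnight 0.5% FBS starvation followed by a 15 min pulse of 1.5 ng/ml EGF. The other used cells in 10% FBS with no stimulation.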

KRas wild type = assay: Ras GTP Binding Domain Inhibition Assay (Ras Superfamily Assay); conditions: 20 μM compound; for KRas wild type + SOS: % inh.: with SOS; for KRas wild type: % inh.: without SOS
Outline: (§1)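 His-tagged GTPases immobilised on nickel-coated plates, pre-incubated with compound (20 μM single point, or serial dilution for IC50) 3 h at room temperature, with or without 10-30 μg/mL Sos (residues 556-1049) in the final hour. Bound Cy3- or Cy5-GTP (100 nM, 45 min) measured by fluorescence after washing.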

KRas Q61H mutant = assay: as above; conditions: 20 μM compound; for KRas Q61H mutant + SOS: % inh.: with SOS; for KRas Q61H mutant: % inh.: without SOS
Outline: as §1

KRas G12C mutant = assay: as above; conditions: 20 μM compound; for KRas G12C mutant + SOS: % inh.: with SOS; for KRas G12C mutant: % inh.: without SOS
Outline: as §1

KRas G12D mutant = assay: as above; conditions: 20 μM compound; for KRas G12D mutant + SOS: % inh.: with SOS; for KRas G12D mutant: % inh.: without SOS
Outline: as §1

Rho-A = target: T1, Rho-A (Homo sapiens, UniProt P61586); assay: as above; conditions: read-out: Rho-A: % inh..
T1 construct: made in house
Outline: as §1

Rac-1 = target: T2, Rac-1 (Homo sapiens, UniProt P63000); assay: as above; conditions: read-out: Rac-1: % inh.
T2 construct: made in house
Outline: as §1

TNF-alpha = TNF-alpha Quantification Assay (ELISA), LPS-stimulated RAW 264.7; assay type: cell-based; conditions: Mus musculus, RAW264.7; at 10 μM; read-out: TNFα: % inh.
IL6 = assay: IL-6 Quantification Assay (ELISA), LPS-stimulated RAW 264.7; assay type: cell-based; design: inhibition: dose or concentration left out as unconfirmed; conditions: Mus musculus, RAW264.7; read-out: IL-6: % inh.

T1 sequence (P61586 whole entry): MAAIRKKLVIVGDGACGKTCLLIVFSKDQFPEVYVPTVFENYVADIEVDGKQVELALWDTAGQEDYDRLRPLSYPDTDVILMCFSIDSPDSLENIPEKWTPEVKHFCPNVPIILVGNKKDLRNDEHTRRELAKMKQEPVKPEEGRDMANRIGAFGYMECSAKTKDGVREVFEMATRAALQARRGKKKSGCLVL

| Structure (SMILES) | % inh of Akt phosphorylation in Panc-1 (Akt phosphorylation) | KRas wild type + SOS: % inh. (KRas wild type) | KRas wild type: % inh. (KRas wild type) | KRas Q61H mutant + SOS: % inh. (KRas Q61H mutant) | KRas Q61H mutant: % inh. (KRas Q61H mutant) | KRas G12C mutant + SOS: % inh. (KRas G12C mutant) | KRas G12C mutant: % inh. (KRas G12C mutant) | KRas G12D mutant + SOS: % inh. (KRas G12D mutant) | KRas G12D mutant: % inh. (KRas G12D mutant) | inhibition at 20 µM (Rho-A) [%] | inhibition at 20 µM (Rac-1) [%] | inhibition at 10 µM (TNF-alpha) [%] | inhibition (IL6) [%] |
| --- | --- | --- | --- | --- | --- | --- | --- | --- | --- | --- | --- | --- | --- |
| COC1CCCN(c2nc(-c3nccn3C)nn3cc(-c4ccn(C(C)C)n4)c(-c4ccccc4)c23)C1 (racemic) [Compound 21, rac 6-(1-Isopropyl-1H-pyrazol-3-yl)-4-(3-methoxypiperidin-1-yl)-2-(1-methyl-1H-imidazol-2-yl)-5-phenylpyrrolo[2,1-f][1,2,4]triazine] | C* (46-84% activation) | A (A = 1-25% inhibition) | A (A = 1-25% inhibition) | A (A = 1-25% inhibition) | 0 (0 = 0% inhibition) | 0 (0 = 0% inhibition) | 0 (0 = 0% inhibition) | 0 (0 = 0% inhibition) | B (B = 26-49% inhibition) | 1 to 25 | 0 | 0 | 1 to 24 |
| COc1cccc(Nc2nc(-c3nccn3C)nn3cc(-c4ccn(C(C)C)n4)c(C)c23)n1 [Compound 7, 6-(1-Isopropyl-1H-pyrazol-3-yl)-N-(6-methoxypyridin-2-yl)-5-methyl-2-(1-methyl-1H-imidazol-2-yl)pyrrolo[2,1-f][1,2,4]triazin-4-amine] | 0 (0% inhibition) | 0 (0 = 0% inhibition) | A (A = 1-25% inhibition) | A (A = 1-25% inhibition) | B (B = 26-49% inhibition) | A (A = 1-25% inhibition) | 0 (0 = 0% inhibition) | 0 (0 = 0% inhibition) | A (A = 1-25% inhibition) | 0 | 0 | 0 | 1 to 24 |
| COCC1CCN(c2nc(-c3nccn3C)nn3cc(-c4ccn(C(C)C)n4)c(C)c23)C1 (racemic) [Compound 2, rac 6-(1-Isopropyl-1H-pyrazol-3-yl)-4-(3-(methoxymethyl)pyrrolidin-1-yl)-5-methyl-2-(1-methyl-1H-imidazol-2-yl)pyrrolo[2,1-f][1,2,4]triazine] | C* (46-84% activation) | 0 (0 = 0% inhibition) | 0 (0 = 0% inhibition) | 0 (0 = 0% inhibition) | 0 (0 = 0% inhibition) | 0 (0 = 0% inhibition) | 0 (0 = 0% inhibition) | 0 (0 = 0% inhibition) | 0 (0 = 0% inhibition) | 0 | 0 | 25 to 49 | 1 to 24 |
| CC(C)n1ccc(-c2cn3nc(-c4nccn4C)nc(O)c3c2-c2ccccc2)n1 [Compound 17, 6-(1-Isopropyl-1H-pyrazol-3-yl)-2-(1-methyl-1H-imidazol-2-yl)-5-phenylpyrrolo[2,1-f][1,2,4]triazin-4-ol] | D (85-100% inhibition) | C (C = 50-75% inhibition) | C (C = 50-75% inhibition) | C (C = 50-75% inhibition) | C (C = 50-75% inhibition) | C (C = 50-75% inhibition) | C (C = 50-75% inhibition) | C (C = 50-75% inhibition) | C (C = 50-75% inhibition) | 76 to 100 | 50 to 75 | 25 to 49 | 50 to 74 |
